The source made the active and inactive calls. The rule behind the calls is not given here.
Assays:
K562 [1] = assay: Induction of apoptosis in human K562 cells assessed as early apoptotic cells at 2.5 uM after 48 hrs by Annexin-V-FITC/PI staining based flow cytometric analysis (reference value: 1.26%); assay type: functional
SK-OV-3 [2] = assay: Antitumor activity against human SK-OV-3 cells assessed as reduction in cell viability incubated for 72 hrs; assay type: functional, cell-based; details: SK-OV-3, 72 h
THP-1 [3] = assay: Induction of apoptosis in human THP-1 cells assessed as necrotic cells at 2.5 uM after 48 hrs by Annexin-V-FITC/PI staining based flow cytometric analysis (reference value: 0.19%); assay type: functional
HL-60 [4] = assay: Induction of apoptosis in human HL-60 cells assessed as viable cells at 2.5 uM after 48 hrs by Annexin-V-FITC/PI staining based flow cytometric analysis (reference value: 96.05%); assay type: functional; details: read-out: Activity
KG-1 [5] = assay: Induction of apoptosis in human KG-1 cells assessed as early apoptotic cells at 2.5 uM after 48 hrs by Annexin-V-FITC/PI staining based flow cytometric analysis (reference value: 0.70%); assay type: functional
NB-4 [6] = assay: Induction of apoptosis in human NB4 cells assessed as decrease in expression level of caspase 3/9 measured at 1 to 5 uM after 48 hrs by Western blotting analysis; assay type: functional, cell-based; details: dose 1-5 µM
U-937 [7] = assay: Induction of apoptosis in human U-937 cells assessed as decrease in expression level of Bcl-2 measured after 48 hrs by Western blotting analysis; assay type: functional, cell-based; details: dose 1-5 µM
K562 [8] = assay: Induction of apoptosis in human K562 cells assessed as accumulation of cells at sub-G1 phase at 2.5 uM after 48 hrs by PI staining based flow cytometric analysis; assay type: functional, cell-based
K562 [9] = assay: Induction of apoptosis in human K562 cells assessed as late apoptotic cells at 2.5 uM after 48 hrs by Annexin-V-FITC/PI staining based flow cytometric analysis (reference value: 0.21%); assay type: functional
THP-1 [10] = assay: Induction of apoptosis in human THP-1 cells assessed as accumulation of cells at sub-G1 phase at 2.5 uM after 48 hrs by PI staining based flow cytometric analysis; assay type: functional, cell-based
U-937 [11] = assay: Induction of apoptosis in human U-937 cells assessed as early apoptotic cells at 2.5 uM after 48 hrs by Annexin-V-FITC/PI staining based flow cytometric analysis (reference value: 2.87%); assay type: functional
KG-1 [12] = assay: Induction of apoptosis in human KG-1 cells assessed as necrotic cells at 2.5 uM after 48 hrs by Annexin-V-FITC/PI staining based flow cytometric analysis (reference value: 2.73%); assay type: functional
THP-1 [13] = assay: Induction of apoptosis in human THP-1 cells assessed as decrease in expression level of PARP measured at 1 to 5 uM after 48 hrs by Western blotting analysis; assay type: functional, cell-based; details: dose 1-5 µM
KG-1 [14] = assay: Induction of apoptosis in human KG-1 cells assessed as accumulation of cells at sub-G1 phase at 2.5 uM after 48 hrs by PI staining based flow cytometric analysis; assay type: functional, cell-based
SU-DHL-2 = assay: Antitumor activity against human SUDHL2 cells assessed as reduction in cell viability incubated for 72 hrs; assay type: functional, cell-based; details: SU-DHL-2, 72 h
NB-4 [15] = assay: Induction of differentiation of human NB4 cells assessed as increase in CD11b expression at 0.5 uM measured after 72 hrs by flow cytometric analysis; assay type: functional, cell-based
U-937 [16] = assay: Induction of apoptosis in human U-937 cells assessed as late apoptotic cells at 2.5 uM after 48 hrs by Annexin-V-FITC/PI staining based flow cytometric analysis (reference value: 0.94%); assay type: functional
U-937 [17] = assay: Induction of apoptosis in human U-937 cells assessed as accumulation of cells at sub-G1 phase at 2.5 uM after 48 hrs by PI staining based flow cytometric analysis; assay type: functional, cell-based
NB-4 [18] = assay: Induction of apoptosis in human NB4 cells assessed as early apoptotic cells at 2.5 uM after 48 hrs by Annexin-V-FITC/PI staining based flow cytometric analysis (reference value: 0.86%); assay type: functional
HL-60 [19] = assay: Antitumor activity against human HL-60 cells assessed as reduction in cell viability incubated for 72 hrs; assay type: functional, cell-based; details: HL-60, 72 h
NB-4 [20] = assay: Induction of apoptosis in human NB4 cells assessed as necrotic cells at 2.5 uM after 48 hrs by Annexin-V-FITC/PI staining based flow cytometric analysis (reference value: 0.29%); assay type: functional
U-937 [21] = assay: Antitumor activity against human U-937 cells assessed as reduction in cell viability incubated for 72 hrs; assay type: functional, cell-based; details: U-937, 72 h
K562 [22] = assay: Induction of apoptosis in human K562 cells assessed as viable cells at 2.5 uM after 48 hrs by Annexin-V-FITC/PI staining based flow cytometric analysis (reference value: 97.34%); assay type: functional; details: read-out: Activity
SK-OV-3 [23] = assay: Antitumor activity against taxol-resistant human SK-OV-3 cells assessed as reduction in cell viability incubated for 72 hrs; assay type: functional, cell-based; details: SK-OV-3, 72 h
KG-1 [24] = assay: Induction of reactive oxygen species production in human KG-1 cells at 1 to 5 uM measured after 48 hrs by DCF fluorescence analysis; assay type: functional, cell-based; details: dose 1-5 µM
K562 [25] = assay: Induction of apoptosis in human K562 cells assessed as necrotic cells at 2.5 uM after 48 hrs by Annexin-V-FITC/PI staining based flow cytometric analysis (reference value: 1.19%); assay type: functional
THP-1 [26] = assay: Induction of differentiation of human THP1 cells assessed as increase in CD11b expression at 0.5 uM measured after 72 hrs by flow cytometric analysis; assay type: functional, cell-based
HL-60 [27] = assay: Induction of apoptosis in human HL-60 cells assessed as late apoptotic cells at 2.5 uM after 48 hrs by Annexin-V-FITC/PI staining based flow cytometric analysis (reference value: 0.44%); assay type: functional
NB-4 [28] = assay: Induction of apoptosis in human NB4 cells assessed as decrease in expression level of YAP1 measured at 1 to 5 uM after 48 hrs by Western blotting analysis; assay type: functional, cell-based; details: dose 1-5 µM
U-937 [29] = assay: Induction of apoptosis in human U-937 cells assessed as decrease in expression level of PARP measured at 1 to 5 uM after 48 hrs by Western blotting analysis; assay type: functional, cell-based; details: dose 1-5 µM
K562 [30] = assay: Induction of apoptosis in human K562 cells assessed as decrease in expression level of YAP1 measured at 1 to 5 uM after 48 hrs by Western blotting analysis; assay type: functional, cell-based; details: dose 1-5 µM
HL-60 [31] = assay: Induction of apoptosis in human HL-60 cells assessed as necrotic cells at 2.5 uM after 48 hrs by Annexin-V-FITC/PI staining based flow cytometric analysis (reference value: 2.83%); assay type: functional
THP-1 [32] = assay: Induction of apoptosis in human THP-1 cells assessed as early apoptotic cells at 2.5 uM after 48 hrs by Annexin-V-FITC/PI staining based flow cytometric analysis (reference value: 4.61%); assay type: functional
THP-1 [33] = assay: Induction of apoptosis in human THP-1 cells assessed as increase in expression level of p21 measured at 1 to 5 uM after 48 hrs by Western blotting analysis; assay type: functional, cell-based; details: dose 1-5 µM
NB-4 [34] = assay: Antitumor activity against human NB4 cells assessed as reduction in cell viability incubated for 72 hrs; assay type: functional, cell-based; details: NB-4, 72 h
THP-1 [35] = assay: Induction of apoptosis in human THP-1 cells assessed as late apoptotic cells at 2.5 uM after 48 hrs by Annexin-V-FITC/PI staining based flow cytometric analysis (reference value: 1.26%); assay type: functional
K562 [36] = assay: Induction of apoptosis in human K562 cells assessed as decrease in expression level of XIAP measured at 1 to 5 uM after 48 hrs by Western blotting analysis; assay type: functional, cell-based; details: dose 1-5 µM

IC50 (SK-OV-3 [2]): 4.84 µM
IC50 (SU-DHL-2): 8.68 µM
IC50 (HL-60 [19]): 3.95 µM
IC50 (U-937 [21]): 1.53 µM
IC50 (SK-OV-3 [23]): 3.68 µM
Structure (SMILES): O=C1O[C@@]23C[C@@H](C=CC2=C1C(O)c1ccc([N+](=O)[O-])cc1)N1CCCC[C@H]13 (some centres not stated)
Activity (K562 [1]): 3.32%
Activity (THP-1 [3]): 1.76%
viability at 2.5 µM (HL-60 [4]): 73%
Activity (KG-1 [5]): 0.33%
Activity (NB-4 [6]): Active
Activity (U-937 [7]): Dose-Dependent Effect
Activity (K562 [8]): Active
Activity (K562 [9]): 12.56%
Activity (THP-1 [10]): Active
Activity (U-937 [11]): 13.42%
Activity (KG-1 [12]): 7.79%
Activity (THP-1 [13]): Active
Activity (KG-1 [14]): Active
Activity (NB-4 [15]): Active
Activity (U-937 [16]): 15.33%
Activity (U-937 [17]): Active
Activity (NB-4 [18]): 23.15%
Activity (NB-4 [20]): 3.4%
viability at 2.5 µM (K562 [22]): 77.5%
Activity (KG-1 [24]): Active
Activity (K562 [25]): 6.62%
Activity (THP-1 [26]): Active
Activity (HL-60 [27]): 6.43%
Activity (NB-4 [28]): Active
Activity (U-937 [29]): Active
Activity (K562 [30]): Active
Activity (HL-60 [31]): 2.42%
Activity (THP-1 [32]): 16.82%
Activity (THP-1 [33]): Active
IC50 (NB-4 [34]): 1.88 µM
Activity (THP-1 [35]): 11.77%
Activity (K562 [36]): Active

Source: ChEMBL document CHEMBL5252615, “Synthesis, biological activity and mechanism of action of novel allosecurinine derivatives as potential antitumor agents” (Bioorg Med Chem, 2023)
